Literature values as cited in US9149457B2, “Nutraceutical composition for PDE4 inhibition, enhanced dopamine metabolism and long term potentiation” (priority 2013, dated 2015).

Tests used:
[1] = references 7-13
acetylcholine = conditions: references 33-35
[2] = references 46-47
[3] = tested on: phosphodiesterase enzymes (PDE 1 through 5); conditions: references 24-27

## COc1ccc(C2CNC(=O)C2)cc1OC1CCCC1 (stereo not shown) [rolipram]
[1]
  side effect: emesis (vomiting) at low doses

## CC(=O)O[C@H](CC(=O)[O-])C[N+](C)(C)C [Acetyl-L-carnitine, acetyl-L-carnitine]
acetylcholine
  levels of acetylcholine in the brain: increase the levels

## O=C(/C=C/C=C/c1ccc2c(c1)OCO2)N1CCCCC1 [Piperine, piperine]
[2]
  bioavailability of resveratrol: enhance the bioavailability of resveratrol

## O=c1cc(-c2ccc(O)c(O)c2)oc2cc(O)cc(O)c12 [Luteolin, luteolin]
[3]
  inhibition of phosphodiesterase enzymes that degrade 3',5'-cyclic nucleotides: can inhibit
